Counter-ions that a name gives are not always drawn. Where only a bound is given, the exact number is not on record here.

In one experiment the test system is Human primary T cells. Briefly: IL-2 ELISA, human primary T cell, anti-CD3+CD28+ (whole cell assay). In kind it is cell-based. The following applies: Homo sapiens, T-cell, 24 h, human primary T cells stimulated with anti-CD3 + anti-CD28, 24 hours. The procedure, abridged: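 IL-2 secreted over 24 h at 37° C was quantified by ELISA after plate-bound αCD3 (1 μg/ml) and αCD28 (5 μg/ml) stimulation, or PMA (0.5 ng/ml) with ionomycin (0.1 μM) as counter-screen. Cells were IL-2-starved primary human T cells, expanded from volunteer PBMC and exposed to compound for 1 hr beforehand.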
(In general: In an ELISA, binding on a coated surface is turned into a signal by an enzyme label.)
With `CN1C(C)(C)CC(Nc2nc(Nc3cc(F)cc(OCCn4ccnn4)c3)ncc2F)CC1(C)C` [Compound I-6, N2-(3-(2-(1H-1,2,3-triazol-1-yl)ethoxy)-5-fluorophenyl)-5-fluoro-N4-(1,2,2,6,6-pentamethylpiperidin-4-yl)pyrimidine-2,4-diamine], the IC50 (commonly the concentration needed to halve the response being measured) fell in the range of 500 to 1000 nM.

For `CN1C(C)(C)CC(Nc2nc(Nc3cccc(-c4nnnn4C4CC4)c3)ncc2F)CC1(C)C` [III-72, N2-(3-(1-cyclopropyl-1H-tetrazol-5-yl)phenyl)-5-fluoro-N4-(1,2,2,6,6-pentamethylpiperidin-4-yl)pyrimidine-2,4-diamine], the IC50 was under 250 nM. For `CN1C(C)(C)CC(Nc2nc(Nc3ccc(OCCN4CCCC4=O)c(C(F)(F)F)c3)ncc2F)CC1(C)C` [Compound I-56, 1-(2-(4-(4-(1,2,2,6,6-pentamethylpiperidin-4-ylamino)-5-fluoropyrimidin-2-ylamino)-2-(trifluoromethyl)phenoxy)ethyl)pyrrolidin-2-one], the IC50 fell in the range of 500 to 1000 nM.

For `[2H]C([2H])([2H])N1C(C)(C)CC(Nc2nc(Nc3ccc(OC4CCN(C(C)C)CC4)c(OC(F)F)c3)ncc2F)CC1(C)C` [III-110, N2-(3-(difluoromethoxy)-4-(1-isopropylpiperidin-4-yloxy)phenyl)-5-fluoro-N4-(1-trideuteromethyl-2,2,6,6-tetramethylpiperidin-4-yl)pyrimidine-2,4-diamine], the half-maximal inhibitory concentration (IC50) was under 250 nM. Regarding `Cn1nnnc1-c1cc(Nc2ncc(F)c(NC3CC(C)(C)NC(C)(C)C3)n2)ccc1F` [III-120, 5-fluoro-N2-(4-fluoro-3-(1-methyl-1H-tetrazol-5-yl)phenyl)-N4-(2,2,6,6-tetramethylpiperidin-4-yl)pyrimidine-2,4-diamine], the IC50 is 500 to 1000 nM. For the compound `CC1(C)CC(Nc2nc(Nc3ccc(OC4CCOCC4)c(OC(F)F)c3)ncc2F)CC(C)(C)N1` [III-23, N2-(3-(difluoromethoxy)-4-(tetrahydro-2H-pyran-4-yloxy)phenyl)-5-fluoro-N4-(2,2,6,6-tetramethylpiperidin-4-yl)pyrimidine-2,4-diamine], the IC50 is 250 to 500 nM. Turning to `CC(C)N1CCC(Oc2ccc(Nc3ncc(F)c(NC4CC(C)(C)N(C)C(C)(C)C4)n3)cc2OC(F)F)C(F)(F)C1` (stereo not shown) [III-107, N2-(4-(3,3-difluoro-1-isopropylpiperidin-4-yloxy)-3-(difluoromethoxy)phenyl)-5-fluoro-N4-(1,2,2,6,6-pentamethylpiperidin-4-yl)pyrimidine-2,4-diamine], the IC50 lay in the range of 500 to 1000 nM.

As to `CC1(C)CC(Nc2nc(Nc3cc(F)cc(OCCn4ccnn4)c3)ncc2C#N)CC(C)(C)N1` [Compound I-17, 4-(2,2,6,6-tetramethylpiperidin-4-ylamino)-2-(3-(2-(1H-1,2,3-triazol-1-yl)ethoxy)-5-fluorophenylamino)pyrimidine-5-carbonitrile], the IC50 was over 1000 nM. `CN1C(C)(C)CC(Nc2nc(Nc3cc(F)c(F)c(-c4nnnn4C)c3)ncc2F)CC1(C)C` [III-137, N2-(3,4-difluoro-5-(1-methyl-1H-tetrazol-5-yl)phenyl)-5-fluoro-N4-(1,2,2,6,6-pentamethylpiperidin-4-yl)pyrimidine-2,4-diamine]: the IC50 is under 250 nM. Turning to `CC(C)N1CCC(Oc2ccc(Nc3ncc(F)c(NC4CC(C)(C)N(C)C(C)(C)C4)n3)cc2C(F)(F)F)CC1` [III-101, 5-fluoro-N2-(4-(1-isopropylpiperidin-4-yloxy)-3-(trifluoromethyl)phenyl)-N4-(1,2,2,6,6-pentamethylpiperidin-4-yl)pyrimidine-2,4-diamine], the IC50 is under 250 nM.

As to `CN1C(C)(C)CC(Nc2nc(Nc3ccc(C4CC4)c(-n4cnnn4)c3)ncc2F)CC1(C)C` [III-119, N^2-(4-cyclopropyl-3-(1H-tetrazol-1-yl)phenyl)-5-fluoro-N^4(1,2,2,6,6-pentamethylpiperidin-4-yl)pyrimidine-2,4-diamine], the IC50 is under 250 nM. On the same count and under the same terms, the figure for `CCOc1ccc(Nc2ncc(F)c(NC3CC(C)(C)NC(C)(C)C3)n2)cc1OC(F)F` [Compound I-108, N2-(3-(difluoromethoxy)-4-ethoxyphenyl)-5-fluoro-N4-(2,2,6,6-tetramethylpiperidin-4-yl)pyrimidine-2,4-diamine] is under 250 nM. Consider `CC1(C)CC(Nc2nc(Nc3ccc(Oc4cccnc4)c(OC(F)F)c3)ncc2F)CC(C)(C)N1` [Compound I-45, N2-(3-(difluoromethoxy)-4-(pyridin-3-yloxy)phenyl)-5-fluoro-N4-(2,2,6,6-tetramethylpiperidin-4-yl)pyrimidine-2,4-diamine], for which the half-inhibitory concentration (IC50) lay in the range of 250 to 500 nM. On to `CCOc1ccc(Nc2ncc(F)c(NC3CC(C)(C)NC(C)(C)C3)n2)cc1-n1c(C)ccc1C` [Compound I-14, N2-(4-ethoxy-3-(2,5-dimethyl-1H-pyrrol-1-yl)phenyl)-5-fluoro-N4-(2,2,6,6-tetramethylpiperidin-4-yl)pyrimidine-2,4-diamine], for which the 50% inhibitory concentration (IC50) was 500 to 1000 nM. For `CC1(C)CC(Nc2nc(Nc3ccc4c(c3)OCC(C(=O)N3CCCCC3)O4)ncc2F)CC(C)(C)N1` (stereo not shown) [II-3, (6-(4-(2,2,6,6-tetramethylpiperidin-4-ylamino)-5-fluoropyrimidin-2-ylamino)-2,3-dihydrobenzo[b][1,4]dioxin-2-yl)(piperidin-1-yl)methanone], the 50% inhibitory concentration (IC50) was over 1000 nM.

Consider `CC1(C)CC(Nc2nc(Nc3ccc(OC(C)(C)CCN4CCCC4)c(F)c3)ncc2F)CC(C)(C)N1` [III-46, 5-fluoro-N2-(3-fluoro-4-(2-methyl-4-(pyrrolidin-1-yl)butan-2-yloxy)phenyl)-N4-(2,2,6,6-tetramethylpiperidin-4-yl)pyrimidine-2,4-diamine], for which the IC50 lay within 500 to 1000 nM. For `[2H]C([2H])([2H])N1C(C)(C)CC(Nc2nc(Nc3ccc(C)c(-n4cnnn4)c3)ncc2F)CC1(C)C` [III-113, 5-fluoro-N2-(4-methyl-3-(1H-tetrazol-1-yl)phenyl)-N4-(1-trideuteromethyl-2,2,6,6-tetramethylpiperidin-4-yl)pyrimidine-2,4-diamine], the IC50 was under 250 nM.

With `CN1C(C)(C)CC(Nc2nc(Nc3ccc(Oc4ccncc4)c(OC(F)F)c3)ncc2F)CC1(C)C` [Compound I-43, N2-(3-(difluoromethoxy)-4-(pyridin-4-yloxy)phenyl)-5-fluoro-N4-(1,2,2,6,6-pentamethylpiperidin-4-yl)pyrimidine-2,4-diamine], the IC50 was over 1000 nM. Same read-out and setting: the figure for `CCNC(=O)N1CCCC(Oc2ccc(Nc3ncc(F)c(NC4CC(C)(C)N(C)C(C)(C)C4)n3)cc2OC(F)F)CC1` (stereo not shown) [III-87, 4-(2-(difluoromethoxy)-4-(5-fluoro-4-(1,2,2,6,6-pentamethylpiperidin-4-ylamino)pyrimidin-2-ylamino)phenoxy)-N-ethylazepane-1-carboxamide] is 250 to 500 nM; for `CN1C(C)(C)CC(Nc2nc(Nc3ccc(OCCn4cncn4)c(OC(F)F)c3)ncc2C#N)CC1(C)C` [Compound I-54, 4-(1,2,2,6,6-pentamethylpiperidin-4-ylamino)-2-(4-(2-(1H-1,2,4-triazol-1-yl)ethoxy)-3-(difluoromethoxy)phenylamino)pyrimidine-5-carbonitrile] it is 500 to 1000 nM; for `CC(C)Oc1ncc(Nc2ncc(F)c(NC3CC(C)(C)N(C)C(C)(C)C3)n2)cc1-c1nnnn1C(C)C` [Compound I-131, 5-fluoro-N2-(6-isopropoxy-5-(1-isopropyl-1H-tetrazol-5-yl)pyridin-3-yl)-N4-(1,2,2,6,6-pentamethylpiperidin-4-yl)pyrimidine-2,4-diamine] it is 500 to 1000 nM. Consider `CC(C)Oc1ccc(Nc2ncc(F)c(NC3CC(C)(C)NC(C)(C)C3)n2)cc1-c1nnnn1C` [III-122, 5-fluoro-N2-(4-isopropoxy-3-(1-methyl-1H-tetrazol-5-yl)phenyl)-N4-(2,2,6,6-tetramethylpiperidin-4-yl)pyrimidine-2,4-diamine], for which the IC50 was under 250 nM. In the case of `CC(C)N1CCC(Oc2ccc(Nc3ncc(F)c(NC4CC(C)(C)N(CC(F)(F)F)C(C)(C)C4)n3)cc2OC(F)F)CC1` [III-3, N2-(3-(Difluoromethoxy)-4-(1-isopropylpiperidin-4-yloxy)phenyl)-5-fluoro-N4-(2,2,6,6-tetramethyl-1-(2,2,2-trifluoroethyl)piperidin-4-yl)pyrimidine-2,4-diamine], the IC50 is over 1000 nM.

Take `CC(C)N1CCC(Oc2ccc(Nc3ncc(F)c(NC4CC(C)(C)NC(C)(C)C4)n3)cc2OC(F)F)C(F)C1` (stereo not shown) [III-104, N2-(3-(difluoromethoxy)-4-(3-fluoro-1-isopropylpiperidin-4-yloxy)phenyl)-5-fluoro-N4-(2,2,6,6-tetramethylpiperidin-4-yl)pyrimidine-2,4-diamine trifluoroacetate salt]: the IC50 lay in the range of 500 to 1000 nM.

The same experiment, now with this note: human primary T cells stimulated with anti-CD3 + anti-CD28, 24 hours.
As to `Cc1ccc(C)n1-c1cc(Nc2ncc(F)c(NC3CC(C)(C)NC(C)(C)C3)n2)ccc1F` [Compound I-101, N2-[3-(2,5-Dimethyl-pyrrol-1-yl)-4-fluoro]phenyl-5-fluoro-N4-(2,2,6,6-tetramethylpiperidin-4-yl)-2,4-pyrimidinediamine], the half-maximal inhibitory concentration (IC50) lay in the range of 250 to 500 nM. Turning to `CC1(C)CC(Nc2nc(Nc3cccc(-c4nnnn4CCF)c3)ncc2C#N)CC(C)(C)N1` [Compound I-97, 5-Cyano-N2-{3-[1-N-(2-fluoroethyl)-(tetrazol-5-yl)]}phenyl-N4-(2,2,6,6-tetramethylpiperidin-4-yl)-2,4-pyrimidinediamine], the IC50 was over 1000 nM. With `CC1(C)CC(Nc2nc(Nc3ccc(F)c(-n4cnnn4)c3)ncc2C#N)CC(C)(C)N1` [Compound I-77, 5-cyano-N2-[4-fluoro-3-(1H-tetrazol-1-yl)]phenyl-N4-(2,2,6,6-tetramethylpiperidin-4-yl)-2,4-pyrimidinediamine], the IC50 is 250 to 500 nM. Consider `CN1C(C)(C)CC(Nc2nc(Nc3cccc(-c4nnnn4CCF)c3)ncc2C#N)CC1(C)C` [Compound I-96, 5-Cyano-N2-{3-[1-N-(2-fluoroethyl)-(tetrazol-5-yl)]}phenyl-N4-(1,2,2,6,6-pentamethylpiperidin-4-yl)-2,4-pyrimidinediamine], for which the IC50 is under 250 nM.

The values are drawn from US9149475B2, “Protein kinase C inhibitors and uses thereof” (Rigel Pharmaceuticals, Inc., priority 2009, dated 2015).
